Reference: patent US20190345536A1, “DETECTION METHOD FOR CHROMOSOMAL ABNORMALITIES AND METHOD FOR EVALUATING INDUCIBILITY” (Sumitomo Chemical Company, Limited, priority 2016, published 2019)
Where two headings read alike, the source gives them in different places.

How the values were obtained:
[1] = system: human iPS cell-derived T lymphocyte; assay: In vitro chromosomal aberration test using human iPS cell-derived T lymphocyte (Example 5); type: cell-based
Procedure: As human iPS cell-derived T lymphocyte, redifferentiated T lymphocyte derived from human iPS cell line “2” described in Example 1(1) was used. […] A test substance was used at the treatment dose (final concentration in medium) described in Table 7. For the treatment, a test substance was dissolved in PBS at a 100-fold concentration of the final concentration in the medium for addition at 1% (v/v). Treatment with a test substance was performed according to the process described in (4). […] After about 14 hr of culture, the total amount of the cell suspension was recovered by pipetting. The cell suspension was diluted with Rh-5 medium to a cell density of 2.0×10^5 cells/mL and reseeded in a 12 well plate not coated with the antibody at 2 mL per well, and culture was continued. Treatments with MMC, EMS and MAN were performed according to the method described below. That is, after about 24 hr from the reseeding in (3), a solution (20 μL) obtained by dissolving a test substance in PBS at a 100-fold concentration of the final concentration described in Table 5 was further added and the cells were treated for 27 hr. Different from a test substance treatment group, PBS (20 μL) was added and a similar treatment was performed for 27 hr to prepare a negative control group. About 2 hr before completion of the treatment, KaryoMAX (registered trade mark) Colcemid™ Solution in HBSS (Life technologies) (20 μL) was added to the well (final concentration in medium: 0.1 μg/mL) to discontinue the cell cycle, and cells in mitotic metaphase were enriched. At the time of start of the test substance treatment, a part of the cell suspension of the negative control group was separated and the number of the cells was measured using a counting chamber. […] All remaining cell suspension was collected in a centrifuge tube and PBS was added to a total volume of 5 mL, after which the mixture was centrifuged (1000 rpm, 5 min). The supernatant was removed, 75 mM KCl heated to 37° C. was added and a hypotonic treatment was performed for 5 min. To the cell suspension after the hypotonicity was added 1/5 volume of a fixation solution (methanol:glacial acetic acid=3:1), and the cells were semi-fixed and centrifuged (4° C., 1000 rpm, 3 min). After centrifugation, the supernatant was substituted with a fresh fixation solution, and the cells were fixed and centrifuged (4° C., 1000 rpm, 3 min). The operation was repeated 3 times, and the cells were sufficiently fixed and centrifuged again (4° C., 1000 rpm, 3 min). The cells were suspended in a small amount of a fixation solution. […] Chromosomal abnormalities were classified into chromatid break, chromosome break, chromatid exchange, chromosome exchange, and other structural abnormalities and counted. […]

[2] = system: human iPS cell-derived T lymphocyte; assay: In vitro comet assay using human iPS cell-derived T lymphocyte (Example 6); type: cell-based
Procedure: As human iPS cell-derived T lymphocyte, redifferentiated T lymphocyte derived from human iPS cell line “2” described in Example 1(1) was used. […] A test substance was used at the treatment dose (final concentration in medium) described in Table 9. For the treatment, a test substance was dissolved in PBS at a 100-fold concentration of the final concentration in the medium for addition at 1% (v/v). A test substance was treated according to the process described in (4). […] Each well was washed twice with 1 mL of PBS, redifferentiated T lymphocytes derived from human iPS cell line described in (1) were suspended in Rh-medium at a cell density of 2.0×10^6 cells/mL and added to each well. After about 13 hr of culture, the total amount of the cell suspension was recovered by pipetting. The cell suspension was diluted with Rh-5 medium to a cell density of 2.0×10^5 cells/mL and reseeded in a 24 well plate not coated with the antibody at 1 mL per well, and culture was continued. Treatments with EMS and MAN were performed according to the method described below. That is, after about 24 hr from the reseeding in (3), a solution (10 μL) obtained by dissolving a test substance in PBS at a 100-fold concentration of the final concentration described in Table 9 was further added and the cells were treated for 4 hr. […] On completion of the additional culture, a part of the cell suspension was separated and the number of the cells was measured using a counting chamber. […] The prepared specimen was stained for nucleic acid using SYBR (registered trade mark) Gold, and observed under a fluorescence microscope at 200-fold magnification. 75 nuclei per specimen and 150 nuclei in two specimens per condition were imaged, % tail DNA was calculated using an image analyzer Comet Assay IV, and DNA damaging activity was determined. The % tail DNA was calculated as a percentage of the fluorescence brightness of the tail to the fluorescence brightness of the whole cell nucleus. […]

[3] = system: human iPS cell-derived T lymphocyte
[4] = from known documents (Kirkland 2016; Lasne 1984); cited from earlier work
[5] = system: human iPS cell-derived T lymphocyte; assay: Proliferation ability of human iPS cell-derived T lymphocyte by various proliferation stimulation factors (ATP amount, CellTiter-Glo; Comparative Example 1); type: cell-based
[6] = from known documents (Kirkland 2016; Lasne 1984; Aardema 2006); cited from earlier work
[7] = from known documents (Kirkland 2016; Lasne 1984); cited from earlier work; remark: listed apart in the source
[8] = system: human iPS cell-derived T lymphocyte; assay: Division kinetics of human iPS cell-derived T lymphocyte stimulated with PHA (CytoB, CBPI; Comparative Example 2); type: cell-based; conditions: CytoB 24 hr
[9] = system: human peripheral blood-derived mononuclear cells PBMC (feeder cell, 35Gy X-ray); assay: Division kinetics of feeder cells alone under PHA stimulation (comparison control, Comparative Example 2); type: cell-based; conditions: feeder cell only, 5 μg/mL PHA, CytoB 24 hr
[10] = iPS cell line 2, 27 hr treatment, doses of Table 7, 300 metaphase cells, Fisher's exact test
[11] = proliferation stimulation for 66 hr
[12] = absence of feeder cells, 3 μg/mL PHA, 426 cells observed
[13] = coculture with feeder cells, 5 μg/mL PHA, 500 cells observed

Compound: CCOS(C)(=O)=O [EMS, ethyl methanesulfonate]
- judgment result obtained in this Example (in vitro chromosomal aberration test) [1]: positive
- judgment result obtained in this Example (in vitro comet assay) [2]: positive
- judgment result obtained in this Example (in vitro micronucleus test) [3]: positive

Compound: CO[C@@]12[C@H](COC(N)=O)C3=C(C(=O)C(C)=C(N)C3=O)N1C[C@@H]1N[C@@H]12 [MMC, mitomycin C]
- judgment result obtained in this Example (in vitro chromosomal aberration test) [1, 10]: positive
- judgment result obtained in this Example (in vitro micronucleus test) [3]: positive
- judgment result expected from known information (in vitro chromosomal aberration test) [4]: positive

Compound: O=P1(N(CCCl)CCCl)NCCCO1 (centres unmarked) [CPA, cyclophosphamide monohydrate]
- judgment result obtained in this Example (in vitro micronucleus test) [3]: positive

Compound: bleomycin sulfate [BLM]
- judgment result obtained in this Example (in vitro micronucleus test) [3]: positive

Compound: Concanavalin A [Con A]
- luminescent signal (count) ([5]; 5 μg/mL Con A, 66 hr, background subtracted): 10064 count
- proliferation rate ([5]; 5 μg/mL Con A, 66 hr, percentage of signal at seeding): 7.8%
- proliferation of human iPS cell-derived T lymphocyte by proliferation stimulation [5, 11]: does not proliferate

Compound: CCCCCCCCCCCCCC(=O)O[C@@H]1[C@@H](C)[C@@]2(O)[C@@H](C=C(CO)C[C@]3(O)C(=O)C(C)=C[C@@H]23)[C@@H]2C(C)(C)[C@]12OC(C)=O [PMA, phorbol 12-myristate 13-acetate]
- luminescent signal (count) [5]: 5784 count
- proliferation of human iPS cell-derived T lymphocyte by proliferation stimulation [5]: does not proliferate
- proliferation rate [5]: 4.5%

Compound: OC[C@@H](O)[C@@H](O)[C@H](O)[C@H](O)CO [MAN, D(−)-mannitol]
- increase in frequency of chromosomal aberration ([1]; all doses (FIG. 12)): no statistically significant increase
- judgment result obtained in this Example (in vitro chromosomal aberration test) [1, 10]: negative
- increase in % tail DNA ([2]; all doses (FIG. 14)): no statistically significant increase
- judgment result obtained in this Example (in vitro comet assay) ([2]; iPS cell line 2, 4 hr treatment, doses of Table 9, % tail DNA, Dunnett's test): negative
- increase in frequency of micronucleus [3]: no statistically significant increase
- judgment result obtained in this Example (in vitro micronucleus test) [3]: negative
- judgment result expected from known information (in vitro micronucleus test) [6]: negative
- judgment result expected from known information (in vitro chromosomal aberration test) [4]: negative
- judgment result expected from known information (in vitro comet assay) [7]: negative

Compound: C[C@H](CCC(=O)O)C[C@H](C)C[C@H](C)C(=O)/C=C(\O)[C@H](C)C[C@H](C)C/C=C/[C@@H](C)[C@@H](O)[C@@H](C)[C@@H](O)C[C@@H]1CC[C@@](C)([C@H]2CC[C@@](C)([C@@H](C)O)O2)O1 [Ionomycin]
- proliferation of human iPS cell-derived T lymphocyte by proliferation stimulation [5]: does not proliferate

Compound: phytohemagglutinin [PHA]
- luminescent signal (count) ([5]; 1 μg/mL PHA, 66 hr, background subtracted): 10984 count
- proliferation rate ([5]; 1 μg/mL PHA, 66 hr, percentage of signal at seeding): 8.5%
- luminescent signal (count) ([5]; 5 μg/mL PHA, 66 hr, background subtracted): 15024 count
- proliferation rate ([5]; 5 μg/mL PHA, 66 hr, percentage of signal at seeding): 11.7%
- proliferation of human iPS cell-derived T lymphocyte by proliferation stimulation [5, 11]: does not proliferate
- CBPI ([8]; absence of feeder cells, 3 μg/mL PHA): 1.39
- binucleated cell number [8, 12]: 160
- mononucleated cell number [8, 12]: 262
- multinucleated cell number [8, 12]: 4
- CBPI ([8]; coculture with feeder cells, 5 μg/mL PHA): 1.15
- binucleated cell number [8, 13]: 71
- mononucleated cell number [8, 13]: 426
- multinucleated cell number [8, 13]: 3
- CBPI [9]: 1.03
- binucleated cell number ([9]; 500 cells observed): 11
- mononucleated cell number ([9]; 500 cells observed): 488
- multinucleated cell number ([9]; 500 cells observed): 1
